Measured values reported in US5756517A, “Use of bisquinoline compounds in the treatment of cerebral disorders” (Bayer Aktiengesellschaft, priority 1996, dated 1998).

Assays:
[1] = system: apamine-sensitive potassium channels in PC12 cells; assay: Non-radioactive Rb+ efflux assay for the identification of potassium channel modulators (PC12 cells); format: cell-based; conditions: Rattus norvegicus, PC-12, 10 min, 10 min stimulation with 50 mM KCl, read-out: % inhibition of the Rb efflux at a test concentration of 10 μM
Experimental: 2) Non-radioactive Rb^+ efflux assay for the identification of potassium channel modulators
The cellular potassium in PC12 cells is exchanged with rubidium, which is not present in the cells. This exchange is performed by incubating the cells over a period of 4 h in a physiological buffer containing 5.4 mM RbCl without KCl. This rubidium subsequently serves as a tracer for potassium. The cells laden with Rb^+ in this way are washed three times and then stimulated by depolarization with 50 mM KCl to open potassium channels (10 min), causing Rb^+ to flow out of the cells into the supernatant according to the concentration gradient.
The rubidium contents in the cell supernatant and in the residual cells after they have been lyzed with 1% Triton X-100 are then. determined by means of atomic absorption spectroscopy. The relative proportion of rubidium in the cell supernatant (=Rb^+ efflux) is used as a measure of the potassium channel activity.
The effect of substances on the channel activity is measured by co-incubating the test substance over the ten-minute stimulation period and determining its effect on the Rb^+ efflux in the manner described above.

[2] = molecular target: apamin binding sites / apamin receptors (apamin-sensitive potassium channels), calves' cerebral membrane; assay: Binding of 125I-apamin to calves' cerebral membrane; conditions: displacement of 125I-apamin (30 pM), calf hippocampus membranes, 60 min on ice
Experimental: 1) Binding of ^125 I-apamin to calves' cerebral membrane
Calf brains were obtained from the local abattoir. The hippocampus was prepared on ice and a membrane suspension was made up by homogenization twice in buffer (100 mM Tris-HCl, KCl 5 mM, pH 7.4) and centrifugation at 43,000×g. In a total volume of 500 μl, the incubation mixture contained 200 μg of membrane protein, 30 pM ^125 I-apamin and test substances in the concentration range 1×10^-9 to 1×10^-4 M. The non-specific binding of ^125 I-apamin was determined in the presence of 1×10^-7 M unlabeled apamin.
After preincubation for 30 min at room temperature (test substances and membrane homogenate), the samples were placed on ice for 10 min before the radioligand was added. The main incubation time was 60 min on ice. When the reaction time had elapsed, an excess of ice-cooled incubation buffer was added to each sample and the mixture was filtered with suction through cellulose acetate/nitrate membrane filters. The amount of bound ^125 I-apamin was measured with a gamma counter.

| Structure (SMILES) | inhibition at 10 µM [1] | Ki [2] |
| --- | --- | --- |
| Cc1cc(NCC(O)CNc2cc(C)nc3ccccc23)c2ccccc2n1 [Example 15] | 73% |  |
| Cc1cc(NCCC(O)CCNc2cc(C)nc3ccccc23)c2ccccc2n1 [Example 14] |  | 190 nM |
